Experiments:
PAPD7 [1] = biological target: T1, PAPD7 (Homo sapiens, UniProt Q5XG87); assay: Y3H ULTImate YChemH competition with free compound; format: binding; conditions: PAPD7 varX1 fragment and full length; probe HBX129653 or HBX129654 1 μM; free compound 0-20 μM; FIG. 3-6
T1 construct: full length proteins for PAPD5 and PAPD7 were synthesized and used for 1-by-1 validation; expressed in transfected cells; host or cells: diploid yeast (YHGX13 with the prey plasmid mated to YPT6AT with the DHFR hook)
T1 sequence (Q5XG87 whole entry, the tested form may be a part): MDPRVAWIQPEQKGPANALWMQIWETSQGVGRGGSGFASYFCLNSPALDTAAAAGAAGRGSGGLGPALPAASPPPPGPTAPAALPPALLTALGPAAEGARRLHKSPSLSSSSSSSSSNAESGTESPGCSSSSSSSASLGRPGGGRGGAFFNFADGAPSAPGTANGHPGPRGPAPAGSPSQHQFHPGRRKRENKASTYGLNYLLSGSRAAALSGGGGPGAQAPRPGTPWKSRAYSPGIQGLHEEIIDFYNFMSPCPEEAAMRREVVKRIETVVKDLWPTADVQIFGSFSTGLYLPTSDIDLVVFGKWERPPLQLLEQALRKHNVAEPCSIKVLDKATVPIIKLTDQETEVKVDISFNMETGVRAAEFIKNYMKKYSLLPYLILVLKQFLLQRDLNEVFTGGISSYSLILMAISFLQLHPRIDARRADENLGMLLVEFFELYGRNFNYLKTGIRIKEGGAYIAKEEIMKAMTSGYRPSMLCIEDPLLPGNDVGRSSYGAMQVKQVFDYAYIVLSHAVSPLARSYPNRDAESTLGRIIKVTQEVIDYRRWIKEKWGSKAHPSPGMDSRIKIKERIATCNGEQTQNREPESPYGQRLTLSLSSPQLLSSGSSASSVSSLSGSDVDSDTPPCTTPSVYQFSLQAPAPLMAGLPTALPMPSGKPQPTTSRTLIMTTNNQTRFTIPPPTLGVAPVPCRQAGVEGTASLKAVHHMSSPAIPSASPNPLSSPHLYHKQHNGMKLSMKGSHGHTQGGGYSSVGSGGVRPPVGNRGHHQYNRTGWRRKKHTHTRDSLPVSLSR
Description: (§1) The competition assays were performed on selective medium at 8 concentrations of the free compound (0, 0.25, 0.5, 1, 2, 5, 10 and 20 μM) and a consistent concentration for the tagged Y3H-compound (1 μM).

PAPD5 [2] = biological target: T2, PAPD5 (Homo sapiens, UniProt Q8NDF8); assay: Y3H ULTImate YChemH competition with free compound; format: binding; conditions: PAPD5 var1 fragment and full length; probe HBX129653 or HBX129654 1 μM; free compound 0-20 μM; FIG. 3-6
T2 construct: full length proteins for PAPD5 and PAPD7 were synthesized and used for 1-by-1 validation; expressed in transfected cells; host or cells: diploid yeast (YHGX13 with the prey plasmid mated to YPT6AT with the DHFR hook)
T2 sequence (Q8NDF8 1-698 isoform Q8NDF8-5): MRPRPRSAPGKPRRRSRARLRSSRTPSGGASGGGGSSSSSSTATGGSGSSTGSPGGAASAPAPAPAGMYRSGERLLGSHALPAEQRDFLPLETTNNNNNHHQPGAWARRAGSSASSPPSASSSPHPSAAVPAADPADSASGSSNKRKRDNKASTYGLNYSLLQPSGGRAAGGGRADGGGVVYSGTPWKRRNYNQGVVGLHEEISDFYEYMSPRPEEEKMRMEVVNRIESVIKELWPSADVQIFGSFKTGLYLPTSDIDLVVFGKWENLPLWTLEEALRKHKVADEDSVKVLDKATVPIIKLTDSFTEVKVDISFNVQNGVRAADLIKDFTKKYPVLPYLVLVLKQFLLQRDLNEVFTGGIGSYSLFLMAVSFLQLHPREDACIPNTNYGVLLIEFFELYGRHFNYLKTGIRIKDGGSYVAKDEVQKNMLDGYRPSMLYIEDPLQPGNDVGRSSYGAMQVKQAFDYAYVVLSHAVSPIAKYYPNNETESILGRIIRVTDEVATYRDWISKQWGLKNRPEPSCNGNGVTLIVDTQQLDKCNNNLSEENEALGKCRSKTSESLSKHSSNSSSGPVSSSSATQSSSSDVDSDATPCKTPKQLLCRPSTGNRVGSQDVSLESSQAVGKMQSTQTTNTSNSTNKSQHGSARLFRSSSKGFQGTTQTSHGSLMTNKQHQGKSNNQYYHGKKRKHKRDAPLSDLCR
Description: as §1

PAPD5 [3] = assay: Y3H ULTImate YChemH 1-by-1 validation (prey fragments, full length proteins); format: binding, Human; conditions: PAPD5 variant 1 and variant 2 fragments; already at the lowest tested concentration (5 of 5, 10, 20 μM); FIG. 1
Description: (§2) In this validation step each one identified fragment prey and one chemical probe (HBX129653, HBX129654) is tested in a 1-by-1 experiment. The plasmids from 3 selected preys from the screening library were extracted from the yeast cells, amplified in E. coli and re-transformed into YHGX13 yeast cells. For each interaction, DO1, 1/10, 1/100 and 1/1000 of the diploid yeast culture expressing both hook and prey constructs were spotted on a selective medium without tryptophan, leucine and histidine and supplemented with the chemical probe and FK506. Interactions were tested in duplicate. One plate was used per chemical compound and concentration (DMSO, 5, 10 and 20 μM of HBX129653, 5, 10 and 20 μM of HBX129654, 5 μM of HBX24786 Trimethoprim (TMP) and 5 μM of HBX129634 (TMP-PEG5-OH)). Plates were incubated at 30° C. for 3 days.
(§3) The coding sequence of full-length PAPD5var1 (NM_001040284.2) and PAPD7varX1 (XM_005248234.2) were reconstituted from an N-terminal codon-optimized gene fragment (to remove high GC content) and commercially available clones of the C-terminal regions of the proteins and cloned in frame with the Gal4 Activation Domain (AD) into plasmid pP7 (AD-Prey), derived from the original pGADGH (Bartel et al., 1993 in Cellular interactions in development: A practical approach. ed. Hartley, D. A., Oxford University Press, Oxford, pp. 153-179). The constructs were checked by sequencing the entire inserts. For each prey, a mini-mating was carried out between YHGX13 (Y187 ade2-101::loxP-kanMX-loxP, mata) transformed with the prey plasmids and YPT6AT yeast cells (mata) transformed with the DHFR hook (Dihydrofolate reductase) to produce a diploid yeast culture. For each interaction, DO1, 1/10, 1/100 and 1/1000 of the diploid yeast culture expressing both hook and prey constructs were spotted on a selective medium without tryptophan, leucine and histidine and supplemented with the chemical probe and FK506. Interactions were tested in duplicate. One plate was used per chemical compound and concentration (DMSO, 5, 10 and 20 μM of HBX129653, 5, 10 and 20 μM of HBX129654, 5 μM of HBX24786 Trimethoprim (TMP) and 5 μM of HBX129634 (TMP-PEG5-OH)). Plates were incubated at 30° C. for 3 days.
(§4) In a first validation step three fragments identified in the first screen were selected for the 1-by-1 validation assay (as described in the Materials and Method section) and tested at three different concentrations ([…]) (Table 11).
(§5) In a second validation step, full length proteins for PAPD5 and PAPD7 were synthesized and used for 1-by-1 validation (as described in the Materials and Method section) with DHQ and THP (Table 12).

PAPD7 [4] = biological target: T1, PAPD7; assay: as above; format: binding; conditions: PAPD7 full length; FIG. 2
Description: as §2, §3, §4, §5

PAPD5 [5] = biological target: T2, PAPD5; assay: as above; format: binding; conditions: PAPD5 var1 full length; FIG. 2
Description: as §2, §3, §4, §5

PAPD7 [6] = assay: as above; format: binding, Human; conditions: PAPD7 fragment; already at the lowest tested concentration (5 of 5, 10, 20 μM); FIG. 1
Description: as §2, §3, §4, §5

COc1cc(N2CCc3nc(-c4ncccn4)ncc3[C@H]2C)cc(F)c1F [MOL654]
competition of free compound with the chemical probe (PAPD7 [1]): competition could be observed | competition of free compound with the chemical probe (PAPD5 [2]): competition could be observed | 1-by-1 validation of prey fragments as binders (PAPD5 [3]): validated as specific binders | 1-by-1 validation, interaction with full length protein (PAPD7 [4]): confirmed at the lowest tested concentration | 1-by-1 validation, interaction with full length protein (PAPD5 [5]): confirmed at the lowest tested concentration | 1-by-1 validation of prey fragments as binders (PAPD7 [6]): validated as specific binders

Source: US11534452B2, “Nucleic acid molecules for reduction of PAPD5 or PAPD7 mRNA for treating hepatitis B infection” (HOFFMANN-LA ROCHE INC., priority 2016, dated 2022)
